This experiment has as its target herpes thymidine kinase (Human herpesvirus 1, UniProt P0DTH5). As to the kind of experiment: Assay for inhibition of herpes thymidine kinase. It counts as biochemical. On the procedure: The assay mixture contains in a final volume of 110 microliters the following: 50 mM Tris-HCl, pH 7.5; 5 mM MgCl2; 5 mM ATP; 2 mM dithiothreitol (DTT); 2.5 mM KF; 0.25 mg/ml bovine serum albumin (BSA); […] thymidine labeled with either ^14 C or ^3 H; the compound being tested as inhibitor; and the viral thymidine kinase. The amount of enzyme, incubation time and temperature are adjusted so that no more than 20% of the substrate is converted to product in a reaction without inhibitor. At the end of the incubation period, 100 microliters of the assay mixture are spotted on a 25 mm disk of DEAE paper. The disks are washed three times with ethanol to remove unreacted thymidine and the amount of thymidine monophosphate produced is determined by scintillation counting of the disks. The results (in IC50) are calculated to give the concentration of inhibitor resulting in 50% inhibition of enzyme. The IC50 of L-58,340 is about 100 nM.

The structures appear in SMILES notation.

Chain of herpes thymidine kinase (P0DTH5 whole entry): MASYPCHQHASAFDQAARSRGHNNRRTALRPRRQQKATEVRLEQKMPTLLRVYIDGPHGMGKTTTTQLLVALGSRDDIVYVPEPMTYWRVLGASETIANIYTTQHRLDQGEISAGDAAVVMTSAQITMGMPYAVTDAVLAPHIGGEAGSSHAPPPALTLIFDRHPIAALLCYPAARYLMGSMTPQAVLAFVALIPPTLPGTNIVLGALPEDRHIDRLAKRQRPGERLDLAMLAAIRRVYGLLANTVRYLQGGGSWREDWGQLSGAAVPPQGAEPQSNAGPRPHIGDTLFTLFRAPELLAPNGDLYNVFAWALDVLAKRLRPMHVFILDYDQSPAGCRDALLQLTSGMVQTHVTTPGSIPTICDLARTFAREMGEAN

For the compound `Nc1nc2c(ncn2C[C@H]2CCCC[C@H]2CO)c(=O)[nH]1` [L-758,340, 9-{[1(R)-hydroxymethyl-2(S)-cyclohexyl]methyl}guanine], the IC50 (2 mM labeled thymidine, 5 mM ATP, pH 7.5, read-out: IC50 (concentration of inhibitor resulting in 50% inhibition of enzyme)) is roughly 100 nM. Besides, the “activity as an inhibitor of herpes thymidine kinase relative to its enantiomer” value (compared with its enantiomer) is recorded as “substantially more active”. Also, the “inhibition of herpes thymidine kinase (in words)” value (first principal finding) is on record as “potent inhibitor”.

For the origin of these results see patent publication US5663175A, “Prodrugs of herpes TK inhibitors” (Merck & Co. Inc., priority 1994, dated 1997).
